{
  "source": "ChEMBL document CHEMBL5465560",
  "about": "“Selectivity Literature for EUbOPEN Chemogenomic Library” (2024)",
  "key": {"[1]": {"target": "T1, Receptor tyrosine-protein kinase erbB-2 (Homo sapiens, UniProt P04626)", "T1 sequence (P04626 whole entry)": "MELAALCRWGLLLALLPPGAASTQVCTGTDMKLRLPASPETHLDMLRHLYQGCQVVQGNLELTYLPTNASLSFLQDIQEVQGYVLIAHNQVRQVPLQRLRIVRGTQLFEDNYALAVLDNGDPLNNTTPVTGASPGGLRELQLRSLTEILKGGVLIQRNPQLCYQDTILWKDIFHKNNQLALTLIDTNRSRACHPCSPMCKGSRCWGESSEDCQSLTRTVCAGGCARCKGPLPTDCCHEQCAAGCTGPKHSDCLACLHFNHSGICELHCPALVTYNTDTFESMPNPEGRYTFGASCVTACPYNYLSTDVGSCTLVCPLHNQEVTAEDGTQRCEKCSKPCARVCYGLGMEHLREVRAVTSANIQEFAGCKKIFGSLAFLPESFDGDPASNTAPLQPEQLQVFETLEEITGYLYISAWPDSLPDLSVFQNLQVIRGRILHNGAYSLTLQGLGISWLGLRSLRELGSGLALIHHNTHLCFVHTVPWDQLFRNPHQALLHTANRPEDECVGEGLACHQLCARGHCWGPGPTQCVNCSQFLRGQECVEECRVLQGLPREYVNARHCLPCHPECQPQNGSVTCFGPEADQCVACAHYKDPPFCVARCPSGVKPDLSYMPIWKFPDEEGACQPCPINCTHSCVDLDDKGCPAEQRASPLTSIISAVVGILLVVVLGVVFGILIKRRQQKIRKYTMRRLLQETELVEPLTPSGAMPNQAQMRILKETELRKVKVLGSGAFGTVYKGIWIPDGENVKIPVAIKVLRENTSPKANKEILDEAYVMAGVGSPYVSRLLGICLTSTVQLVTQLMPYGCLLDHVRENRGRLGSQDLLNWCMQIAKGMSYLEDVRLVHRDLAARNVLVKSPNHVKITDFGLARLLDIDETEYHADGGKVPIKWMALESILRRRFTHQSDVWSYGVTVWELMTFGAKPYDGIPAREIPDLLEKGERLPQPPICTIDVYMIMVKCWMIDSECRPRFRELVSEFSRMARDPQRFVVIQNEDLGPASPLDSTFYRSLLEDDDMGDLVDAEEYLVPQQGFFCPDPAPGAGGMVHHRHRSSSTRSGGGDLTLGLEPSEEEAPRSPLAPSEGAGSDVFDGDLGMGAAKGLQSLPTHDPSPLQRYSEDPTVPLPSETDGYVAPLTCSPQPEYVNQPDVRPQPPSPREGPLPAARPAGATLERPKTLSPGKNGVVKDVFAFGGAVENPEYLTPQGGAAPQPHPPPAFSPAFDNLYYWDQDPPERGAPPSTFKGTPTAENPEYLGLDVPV", "test": "Selectivity interaction (KinomeScan (DiscoverX)) EUB0000229b ERBB2", "conditions": "at 10 µM"}, "[2]": {"target": "Phosphorylase b kinase gamma catalytic chain, skeletal muscle/heart isoform (Homo sapiens) (UniProt Q16816)", "sequence (Q16816 whole entry, looked up, canonical isoform)": "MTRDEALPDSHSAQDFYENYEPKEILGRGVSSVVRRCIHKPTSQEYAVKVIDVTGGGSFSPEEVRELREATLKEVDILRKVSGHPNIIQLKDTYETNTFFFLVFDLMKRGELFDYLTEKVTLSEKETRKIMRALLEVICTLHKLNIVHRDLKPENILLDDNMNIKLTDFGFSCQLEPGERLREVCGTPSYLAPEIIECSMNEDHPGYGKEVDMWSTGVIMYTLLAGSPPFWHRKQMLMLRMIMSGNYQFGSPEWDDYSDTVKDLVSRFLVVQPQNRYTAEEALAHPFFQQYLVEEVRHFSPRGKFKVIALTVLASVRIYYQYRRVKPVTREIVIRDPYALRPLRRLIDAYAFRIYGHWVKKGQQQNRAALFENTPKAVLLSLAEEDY", "test": "Selectivity interaction (KinomeScan (DiscoverX)) EUB0000695a PHKG1", "conditions": "at 100 nM"}, "[3]": {"target": "Tyrosine-protein kinase Lyn (Homo sapiens, UniProt P07948)", "sequence (P07948 2-512 limits assumed)": "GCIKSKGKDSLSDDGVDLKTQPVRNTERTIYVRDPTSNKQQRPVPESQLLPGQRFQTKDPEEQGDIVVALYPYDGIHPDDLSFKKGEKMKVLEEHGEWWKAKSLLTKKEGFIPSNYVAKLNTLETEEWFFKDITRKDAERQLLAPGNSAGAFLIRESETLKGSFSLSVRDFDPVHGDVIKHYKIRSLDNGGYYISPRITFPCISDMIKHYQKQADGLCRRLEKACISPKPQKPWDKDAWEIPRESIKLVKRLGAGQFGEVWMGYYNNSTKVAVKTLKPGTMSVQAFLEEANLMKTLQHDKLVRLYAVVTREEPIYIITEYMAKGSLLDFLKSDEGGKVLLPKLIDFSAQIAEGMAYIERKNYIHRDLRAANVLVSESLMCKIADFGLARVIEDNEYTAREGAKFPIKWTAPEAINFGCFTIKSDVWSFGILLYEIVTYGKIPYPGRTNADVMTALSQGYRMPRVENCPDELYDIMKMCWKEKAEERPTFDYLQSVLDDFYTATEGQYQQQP", "test": "Selectivity interaction (Kinase panel (Z-LYTE Assay)) EUB0001632a LYN", "conditions": "at 10 µM"}, "[4]": {"target": "Histone-lysine N-methyltransferase KMT5C (Homo sapiens) (UniProt Q86Y97)", "sequence (Q86Y97 whole entry, looked up)": "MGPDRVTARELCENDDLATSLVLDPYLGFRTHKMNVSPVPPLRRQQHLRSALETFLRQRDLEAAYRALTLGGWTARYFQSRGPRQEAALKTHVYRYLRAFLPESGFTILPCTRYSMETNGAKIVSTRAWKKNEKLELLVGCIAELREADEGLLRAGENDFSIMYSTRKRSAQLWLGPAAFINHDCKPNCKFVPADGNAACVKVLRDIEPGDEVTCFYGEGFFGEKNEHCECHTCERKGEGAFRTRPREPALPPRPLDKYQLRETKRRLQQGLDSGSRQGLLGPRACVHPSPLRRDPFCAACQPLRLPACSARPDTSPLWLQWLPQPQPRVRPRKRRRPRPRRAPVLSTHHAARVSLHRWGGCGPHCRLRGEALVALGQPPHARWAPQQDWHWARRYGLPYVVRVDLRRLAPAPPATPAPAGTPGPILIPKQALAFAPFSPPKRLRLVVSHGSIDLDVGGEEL", "test": "Selectivity interaction (Transferase panel (protein, RNA, and DNA methyltransferases. and EP300 (acetyltransferase))) EUB0000270b SUV420H2"}, "[5]": {"tested_on": "Mast/stem cell growth factor receptor Kit (Homo sapiens), P10721 [V559D]", "conditions": "at 10 µM"}, "[6]": {"target": "Eukaryotic elongation factor 2 kinase (Homo sapiens, UniProt O00418)"}, "[7]": {"target": "Casein kinase I isoform alpha (Homo sapiens, UniProt P48729)", "sequence (P48729 whole entry, canonical isoform)": "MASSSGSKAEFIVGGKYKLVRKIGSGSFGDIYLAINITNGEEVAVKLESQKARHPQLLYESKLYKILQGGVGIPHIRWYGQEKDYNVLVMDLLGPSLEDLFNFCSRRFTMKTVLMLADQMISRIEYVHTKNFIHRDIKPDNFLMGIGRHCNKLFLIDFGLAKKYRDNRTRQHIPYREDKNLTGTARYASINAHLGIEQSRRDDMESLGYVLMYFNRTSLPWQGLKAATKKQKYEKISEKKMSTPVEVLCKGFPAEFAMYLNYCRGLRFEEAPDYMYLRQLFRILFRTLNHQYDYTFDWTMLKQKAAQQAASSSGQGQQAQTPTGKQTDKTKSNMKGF", "test": "Selectivity interaction (Enzymatic assay) EUB0001199aCl CSNK1A1"}, "[8]": {"target": "5'-AMP-activated protein kinase catalytic subunit alpha-2 (Homo sapiens) (UniProt P54646)", "test": "Selectivity interaction (KinomeScan (DiscoverX)) EUB0000607a PRKAA2", "conditions": "at 10 µM"}, "[9]": {"target": "Mitogen-activated protein kinase 3 (Homo sapiens, UniProt P27361)", "test": "Selectivity interaction (SelectScreen profiling (Invitrogen)) EUB0000607a MAPK3", "conditions": "at 2 µM"}, "[10]": {"target": "High affinity nerve growth factor receptor (Homo sapiens, UniProt P04629)", "test": "Selectivity interaction (SelectScreen Kinase Profiling (Thermo Fisher Scientific)) EUB0001558a NTRK1", "conditions": "at 1 µM"}, "[11]": {"target": "Tyrosine-protein kinase BTK (Homo sapiens, UniProt Q06187)", "test": "Selectivity interaction (ActivX KiNativ screen (kinase selectivity in THP-1 cell lysates)) EUB0000639a BTK", "type": "subcellular", "conditions": "lysate, at 5 µM"}, "[12]": {"target": "Tyrosine-protein kinase Fer (Homo sapiens) (UniProt P16591)", "sequence (P16591 whole entry, looked up)": "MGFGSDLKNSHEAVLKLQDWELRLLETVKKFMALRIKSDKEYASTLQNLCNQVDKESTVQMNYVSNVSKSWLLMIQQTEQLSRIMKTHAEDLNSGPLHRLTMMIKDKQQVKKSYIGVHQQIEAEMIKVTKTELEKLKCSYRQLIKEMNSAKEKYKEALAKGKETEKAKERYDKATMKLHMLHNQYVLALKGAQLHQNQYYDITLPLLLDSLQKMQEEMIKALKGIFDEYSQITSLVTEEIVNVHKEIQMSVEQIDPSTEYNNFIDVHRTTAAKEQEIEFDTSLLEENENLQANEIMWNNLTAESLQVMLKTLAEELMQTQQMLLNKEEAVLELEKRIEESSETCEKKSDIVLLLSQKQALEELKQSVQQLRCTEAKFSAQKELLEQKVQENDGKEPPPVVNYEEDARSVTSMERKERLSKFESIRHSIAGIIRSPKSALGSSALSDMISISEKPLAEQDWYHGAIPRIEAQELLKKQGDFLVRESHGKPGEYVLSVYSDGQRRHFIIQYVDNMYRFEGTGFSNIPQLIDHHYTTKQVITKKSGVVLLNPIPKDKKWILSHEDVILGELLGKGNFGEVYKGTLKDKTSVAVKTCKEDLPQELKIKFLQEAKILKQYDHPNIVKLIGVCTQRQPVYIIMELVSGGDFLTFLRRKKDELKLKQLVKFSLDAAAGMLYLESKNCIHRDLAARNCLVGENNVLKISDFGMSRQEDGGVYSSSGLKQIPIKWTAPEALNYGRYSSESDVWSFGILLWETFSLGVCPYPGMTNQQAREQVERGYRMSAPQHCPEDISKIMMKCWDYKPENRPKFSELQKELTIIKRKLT", "test": "Selectivity interaction (ActivX KiNativ screen (kinase selectivity in THP-1 cell lysates)) EUB0000639a FER", "type": "subcellular", "conditions": "lysate"}, "[13]": {"target": "Serine/threonine-protein kinase MARK1 (Homo sapiens) (UniProt Q9P0L2)", "test": "Selectivity interaction (KinomeScan (DiscoverX)) EUB0000655a MARK1", "conditions": "at 10 µM"}, "[14]": {"target": "T1, Receptor tyrosine-protein kinase erbB-2", "test": "Selectivity interaction (KinomeScan (DiscoverX)) EUB0000655a ERBB2", "conditions": "at 10 µM"}, "[15]": {"tested_on": "Phosphatidylinositol 4,5-bisphosphate 3-kinase catalytic subunit alpha isoform (Homo sapiens), P42336 [I800L]", "conditions": "at 10 µM"}, "[16]": {"target": "Macrophage colony-stimulating factor 1 receptor (Homo sapiens) (UniProt P07333)", "sequence (P07333 whole entry)": "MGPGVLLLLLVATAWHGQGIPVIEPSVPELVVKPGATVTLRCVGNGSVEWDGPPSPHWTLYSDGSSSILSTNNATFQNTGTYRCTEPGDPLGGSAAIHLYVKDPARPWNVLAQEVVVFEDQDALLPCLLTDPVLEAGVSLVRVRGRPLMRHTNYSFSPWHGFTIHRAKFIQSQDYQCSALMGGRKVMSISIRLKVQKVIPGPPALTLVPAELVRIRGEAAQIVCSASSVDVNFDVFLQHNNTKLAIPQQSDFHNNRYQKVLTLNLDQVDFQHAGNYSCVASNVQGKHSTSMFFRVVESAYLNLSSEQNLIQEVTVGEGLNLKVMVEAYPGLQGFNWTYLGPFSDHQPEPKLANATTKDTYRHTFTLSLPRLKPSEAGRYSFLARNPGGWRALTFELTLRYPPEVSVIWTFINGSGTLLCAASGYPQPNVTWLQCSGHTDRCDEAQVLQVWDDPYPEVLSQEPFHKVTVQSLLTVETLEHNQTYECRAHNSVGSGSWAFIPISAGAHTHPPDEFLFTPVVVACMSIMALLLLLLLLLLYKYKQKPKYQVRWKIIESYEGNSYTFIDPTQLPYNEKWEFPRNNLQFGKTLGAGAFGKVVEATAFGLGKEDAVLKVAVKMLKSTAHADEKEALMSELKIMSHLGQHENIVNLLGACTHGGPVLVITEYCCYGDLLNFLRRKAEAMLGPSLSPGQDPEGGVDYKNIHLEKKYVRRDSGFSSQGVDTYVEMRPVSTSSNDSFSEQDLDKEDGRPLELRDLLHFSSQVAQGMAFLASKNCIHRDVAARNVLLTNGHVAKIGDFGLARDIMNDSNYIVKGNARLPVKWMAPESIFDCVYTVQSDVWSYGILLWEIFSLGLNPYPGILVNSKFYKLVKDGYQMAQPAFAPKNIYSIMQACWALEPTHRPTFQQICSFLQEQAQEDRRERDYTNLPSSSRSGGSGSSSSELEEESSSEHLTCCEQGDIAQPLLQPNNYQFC", "test": "Selectivity interaction (KinomeScan (DiscoverX)) EUB0000092b CSF1R", "conditions": "at 10 µM"}, "[17]": {"target": "T2, Receptor-interacting serine/threonine-protein kinase 4 (Homo sapiens) (UniProt P57078)", "T2 sequence (whole entry)": "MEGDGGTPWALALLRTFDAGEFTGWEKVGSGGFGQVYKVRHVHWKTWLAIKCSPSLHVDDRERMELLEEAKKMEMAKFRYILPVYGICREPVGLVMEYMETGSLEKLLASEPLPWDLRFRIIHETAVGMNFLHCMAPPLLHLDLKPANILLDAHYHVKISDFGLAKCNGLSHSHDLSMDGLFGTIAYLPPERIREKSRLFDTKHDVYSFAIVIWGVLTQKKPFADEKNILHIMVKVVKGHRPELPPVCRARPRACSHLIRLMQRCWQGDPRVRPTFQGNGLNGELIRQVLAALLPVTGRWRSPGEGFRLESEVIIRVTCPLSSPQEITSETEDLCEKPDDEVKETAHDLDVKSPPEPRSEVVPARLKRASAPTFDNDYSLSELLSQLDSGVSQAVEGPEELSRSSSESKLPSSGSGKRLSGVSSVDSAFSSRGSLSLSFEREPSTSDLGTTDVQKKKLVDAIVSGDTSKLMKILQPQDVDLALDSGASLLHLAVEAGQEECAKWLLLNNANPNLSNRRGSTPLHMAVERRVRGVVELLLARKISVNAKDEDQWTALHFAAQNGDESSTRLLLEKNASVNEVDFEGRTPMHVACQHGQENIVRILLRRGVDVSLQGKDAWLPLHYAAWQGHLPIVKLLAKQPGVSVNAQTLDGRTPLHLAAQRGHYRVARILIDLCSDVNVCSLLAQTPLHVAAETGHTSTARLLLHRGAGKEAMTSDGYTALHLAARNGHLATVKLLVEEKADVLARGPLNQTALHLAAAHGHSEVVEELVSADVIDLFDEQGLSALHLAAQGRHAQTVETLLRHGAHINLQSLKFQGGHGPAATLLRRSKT", "test": "Selectivity interaction (Ambit KINOMEscan and KiNATiv profiling in Jurkat cells) EUB0000090b RIPK4", "type": "cell-based", "conditions": "at 1 µM"}, "[18]": {"target": "Platelet-derived growth factor receptor alpha (Homo sapiens, UniProt P16234)", "test": "Selectivity interaction (Ambit KINOMEscan and KiNATiv profiling in Jurkat cells) EUB0000090b PDGFRA", "type": "cell-based", "conditions": "at 1 µM"}},
  "note": "pIC50: −log10 of the molar value.",
  "data": [
    {"compound": "COc1cc(N(C)c2ccnc3ccc(C(F)(F)F)cc23)cc(OC)c1OC", "values": [
      {"measurement": "% binding", "setting": "[1]", "value": 62, "unit": "%"}
    ]},
    {"compound": "Cc1cc(F)c(C(=O)Nc2cccc(-c3nncn3C(C)C)n2)cc1-n1cnc(C2CC2)c1", "values": [
      {"measurement": "% of control", "setting": "[2]", "value": 98, "unit": "%"}
    ]},
    {"compound": "Cn1cc(-n2cnc3c(NCc4nc5cc(Cl)c(Cl)cc5[nH]4)nc(N4CCOCC4)nc32)cn1", "values": [
      {"measurement": "% of control", "setting": "[3]", "value": 8.19, "unit": "%"}
    ]},
    {"compound": "Cc1cc(CN)cc(C)c1-c1ncn(C)c1-c1cncn1C", "values": [
      {"measurement": "% activity", "setting": "[4]; at 1 µM", "value": "> 90", "unit": "%"},
      {"measurement": "% activity", "setting": "[4]; at 10 µM", "value": "> 80", "unit": "%"}
    ]},
    {"compound": "Cc1cc([C@@H](C)Nc2ccccc2C(=O)O)c2nc(N3CCOCC3)cc(=O)n2c1", "note": "[AZD-6482]", "values": [
      {"measurement": "% of control", "setting": "[5]", "value": 91, "unit": "%"}
    ]},
    {"compound": "CCc1cccc(CC)c1NC(=O)c1nn(C)c2c1CCc1cnc(Nc3ccc(C(=O)NC4CCN(C)CC4)cc3OC(F)(F)F)nc1-2", "values": [
      {"measurement": "pIC50", "setting": "[6]", "value": "< 5.00"}
    ]},
    {"compound": "CN1Cc2nccc(-c3cn(C)nc3-c3ccc(F)cc3)c2C1=O", "values": [
      {"measurement": "pIC50", "setting": "[7]", "value": 6.20}
    ]},
    {"compound": "CNC(=O)Nc1ccc(-c2nc(N3CC4CCC(C3)O4)c3cnn(C4CCC5(CC4)OCCO5)c3n2)cc1", "values": [
      {"measurement": "% of control", "setting": "[8]", "value": 93, "unit": "%"},
      {"measurement": "% of inhibition", "setting": "[9]", "value": 1, "unit": "%"}
    ]},
    {"compound": "CC(C)(O)[C@H](F)CN1Cc2cc(NC(=O)c3cnn4cccnc34)c(N3CCOCC3)cc2C1=O", "values": [
      {"measurement": "% of inhibition", "setting": "[10]", "value": 71, "unit": "%"}
    ]},
    {"compound": "CC[C@@H]1[C@H](F)C(=O)N[C@@H]1COc1nccc2cc(C(N)=O)c(OC)cc12", "note": "[ZIMLOVISERTIB]", "values": [
      {"measurement": "% of inhibition", "setting": "[11]", "value": -7, "unit": "%"},
      {"measurement": "% of inhibition", "setting": "[12]; at 0.01 µM", "value": -9.6, "unit": "%"},
      {"measurement": "% of inhibition", "setting": "[12]; at 0.04 µM", "value": 0.8, "unit": "%"},
      {"measurement": "% of inhibition", "setting": "[12]; at 0.2 µM", "value": -7.6, "unit": "%"},
      {"measurement": "% of inhibition", "setting": "[12]; at 1 µM", "value": 15.7, "unit": "%"},
      {"measurement": "% of inhibition", "setting": "[12]; at 5 µM", "value": 10.9, "unit": "%"}
    ]},
    {"compound": "CN(C)CCOc1ccc(-c2nc(-c3ccncc3)c(-c3ccc4c(c3)CC/C4=N\\O)[nH]2)cc1", "values": [
      {"measurement": "% of control", "setting": "[13]", "value": 100, "unit": "%"},
      {"measurement": "% of control", "setting": "[14]", "value": 40, "unit": "%"}
    ]},
    {"compound": "CCC(=O)N1CCN(c2ccc(-n3c(=O)ccc4cnc5ccc(-c6cnc7ccccc7c6)cc5c43)cc2C(F)(F)F)CC1", "values": [
      {"measurement": "% of control", "setting": "[15]", "value": 0, "unit": "%"},
      {"measurement": "% of control", "setting": "[16]", "value": 24, "unit": "%"}
    ]},
    {"compound": "CN(C)C/C=C/C(=O)Nc1ccc(C(=O)N2CCCC(Nc3ncc(Cl)c(-c4c[nH]c5ccccc45)n3)C2)cc1", "note": "(stereo not drawn)", "values": [
      {"measurement": "% of control", "setting": "[17]", "value": 86, "unit": "%"},
      {"measurement": "% of control", "setting": "[18]", "value": 91, "unit": "%"}
    ]}
  ]
}
